Measurements from patent US8598228B2, “Cinnamic acid ascorbates” (Merck Patent GmbH, priority 2009, dated 2013).

How the values were obtained:
[1] = UV absorption maximum of product; format: physicochemical
Description: 20 g of (E)-3-(2,4,5-trimethoxyphenyl)acrylic acid (84 mmol; 1 eq.) are dissolved in 100 ml of dimethylformamide in an argon-flushed three-necked flask, and 11.1 g of diisopropylcarbodiimide (88.1 mmol, 1.05 eq.) are added. After 30 min, ascorbic acid (22.2 g, 126 mmol; 1.5 eq.) dissolved in 45 ml of dimethylformamide is added dropwise. After 30 min at 0° C., the mixture is stirred at room temperature for a further 6 hours. The reaction solution is evaporated to dryness, suspended in ethyl acetate/hexane 1:1 and filtered, and the product is precipitated as a pale-yellow solid by addition of hexane (λmax=354 nm).

[2] = cited from earlier work; for specific absorbance at the absorbance maximum (ε): MeOH

Compound	λmax [1] [nm]	specific absorbance at the absorbance maximum (ε) [2]	λmax(MeOH) [2] [nm]
COc1cc(OC)c(OC)cc1/C=C/C(=O)OC[C@@H](O)[C@H]1OC(=O)C(O)=C1O [Example 4, (R)-2-((R)-3,4-dihydroxy-5-oxo-2,5-dihydrofuran-2-yl)-2-hydroxyethyl (E)-3-(2,4,5-trimethoxyphenyl)acrylate]	354		
CCCCC(CC)COC(=O)/C=C\c1ccc(OC)cc1 (stereo not drawn) [cis-EHMC]		13,500	304
CCCCC(CC)COC(=O)/C=C/c1ccc(OC)cc1 (stereo not drawn) [trans-EHMC]		24,550	309
